Measurements: US5178873A, “Essential fatty acid treatment” (Efamol Holdings PLC, priority 1990, dated 1993)

Columns and labels:
[1] = tested on: human epidermal PLA2; test: inhibition of human epidermal PLA2 activity by fatty acids (1-palmitoyl 2-1-^14 C. palmitoyl phosphatidyl choline substrate); format: biochemical; settings: for IC50: purified human epidermal enzyme, standard assay with 1-palmitoyl 2-1-^14 C. palmitoyl phosphatidyl choline; for ability to inhibit PLA2, ranking among fatty acids tested: PLA2 isolated from human skin, stated for both test systems
Description: (§1) In the experimental work on which the above discussion is based, epidermal PLA2 was prepared from isolated mouse or human epidermal cells by detergent solubilisation, ion exchange chromatography and gel filtration. Both enzymes had molecular weights in the region of 68,000, a pH optimum around 9.0 and an absolute requirement for calcium ions. Phospholipids were prepared as both unilamellar vesicles and detergent micelles. PLA2 activity was readily detected using these substrates, with no apparent preference for polar head group. For the standard assay, 1-palmitoyl 2-1-^14 C. palmitoyl phosphatidyl choline was used. The reaction was initiated by the addition of purified enzyme and terminated by the addition of chloroform/methanol/acetic acid (3:4:1). The free fatty acid was extracted, separated by thin layer chromatography and quantified by scintillation counting. Ranges of concentrations of various fatty acids were added to the reaction mixture to assess their ability to inhibit PLA2. Dose response curves were constructed and the IC50 value (the concentration of fatty acid required to inhibit enzyme activity by 50%) was estimated. Similar experiments were performed using macrophages isolated from rat peritoneal cavity by lavage.

[2] = tested on: rat macrophage PLA2; test: inhibition of rat macrophage PLA2 activity by fatty acids; format: biochemical; settings: for IC50: macrophages isolated from rat peritoneal cavity by lavage; for ability to inhibit PLA2, ranking among fatty acids tested: PLA2 from rat macrophages, stated for both test systems
Description: as §1

| SMILES | IC50 [1] [µM] | IC50 [2] [µM] | ability to inhibit PLA2, ranking among fatty acids tested [2] | ability to inhibit PLA2, ranking among fatty acids tested [1] |
| --- | --- | --- | --- | --- |
| CCCCC/C=C\C/C=C\CCCCCCCCCC(=O)O [20:2 cis 11,14-eicosadienoic, cis 11,14-eicosadienoic] | 87 ± 6 | – | – | – |
| CCCCCCCC/C=C\CCCCCCCCCC(=O)O [20:1 cis 11-eicosenoic, cis 11-eicosenoic] | > 100 | > 100 | – | – |
| CCCCC/C=C\C/C=C\CCCCCCCC(=O)O [18:2 cis 9,12-octadecadienoic (linoleic), delta-9,12-octadecadienoic acid] | 85 ± 5 | – | – | – |
| CCCCC/C=C\C/C=C\C/C=C\CCCCCCC(=O)O [cis 8,11,14-eicosatrienoic] | 61 ± 5 | 71 ± 11 | – | – |
| CCCCC/C=C\C/C=C\C/C=C\C/C=C\CCCC(=O)O [20:4 cis 5,8,11,14-eicosatetraenoic (AA), cis 5,8,11,14-eicosatetraenoic] | 45 ± 8 | 65 ± 8 | closest to SA in its ability to inhibit PLA2 | closest to SA in its ability to inhibit PLA2 |
| CCCCCCCCCCC/C=C\CCCCC(=O)O [18:1 cis 6-octadecenoic, cis 6-octadecenoic] | > 100 | > 100 | – | – |

Second part, led by results:

| IC50 [1] [µM] | IC50 [2] [µM] | SMILES | ability to inhibit PLA2, ranking among fatty acids tested [2] | ability to inhibit PLA2, ranking among fatty acids tested [1] |
| --- | --- | --- | --- | --- |
| 45 ± 6 | 75 ± 9 | CC/C=C\C/C=C\C/C=C\CCCCCCCC(=O)O [cis 9,12,15-octadecatrienoic] | – | – |
| 58 ± 4 | – | CC/C=C\C/C=C\C/C=C\C/C=C\C/C=C\CCCC(=O)O [cis 5,8,11,14,17-eicosapentaenoic] | – | – |
| 37 ± 3 | 52 ± 8 | CC/C=C\C/C=C\C/C=C\C/C=C\CCCCC(=O)O [delta-6,9,12,15-octadecatetraenoic acid] | the most potent of all the fatty acids tested | the most potent of all the fatty acids tested |
| 52 ± 3 | – | CCCCC/C=C\C/C=C\C/C=C\CCCCC(=O)O [cis 6,9,12-octadecatrienoic] | – | – |
